# Publication PMC6820371, “Terbium-161 for PSMA-targeted radionuclide therapy of prostate cancer” (European Journal of Nuclear Medicine and Molecular Imaging, 2019)
# Read-outs that look alike come from different tables or passages of the source.
# Columns and labels:
# [1] = tested on: PSMA-positive PC-3 PIP tumor cells; assay: Tumor cell uptake and internalization; assay type: cell-based, human; conditions: for Internalized fraction: PC-3 PIP
# [2] = tested on: PC-3 PIP/flu tumor-bearing mice; conditions: for Biodistribution: Blood / Biodistribution: Bone / Biodistribution: Heart / Biodistribution: Intestines / Biodistribution: Kidneys / Biodistribution: Liver / Biodistribution: Lung / Biodistribution: Muscle / Biodistribution: PC-3 PIP tumor / Biodistribution: PC-3 flu tumor / Biodistribution: Salivary glands / Biodistribution: Spleen / Biodistribution: Stomach: 5.0 MBq, 1 nmol i.v.; for Tumor-to-blood / Tumor-to-kidney / Tumor-to-liver: PC-3 PIP tumor
# Description: Biodistribution studies were performed 12–14 days after tumor cell inoculation when the tumor xenografts reached an average tumor volume of about ~50–200 mm^3 (Supplementary material). PSMA-617 was labeled with ^161Tb at a specific activity of 5.0 MBq/nmol and diluted in saline. […] The mice were sacrificed at 1 h, 4 h, 24 h, 48 h, or 96 h post injection (p.i.) and selected tissues and organs were collected, weighed, and measured using a γ-counter (Perkin Elmer, Wallac Wizard 1480). Groups of 3–5 mice were sacrificed at each time point. The results were decay-corrected and listed as percentage of the injected activity per gram of tissue mass (% IA/g). Data are presented as the average ± standard deviation (SD).
# A p-value of < 0.05 was considered statistically significant.
# Biodistribution studies were performed 12–14 days after tumor cell inoculation. The experimental procedure of the biodistribution studies is described in the main manuscript.
# [3] = Stability of radioligand incubated in saline (radiolytic degradation); assay type: physicochemical
# Description: The radiolabeling of PSMA-617 (Advanced Biochemical Compounds, ABX GmbH, Radeberg, Germany) with ^161Tb was performed under standard labeling conditions (Supplementary material). […] The n-octanol/PBS distribution coefficient (logD) was determined for ^161Tb-PSMA-617 (Supplementary material). All of these experiments were performed as previously reported for ^177Lu-PSMA-617 [27].
compound,measurement,setting,value
O=C([O-])CN1CCN(CC(=O)[O-])CCN(CC(=O)NCC2CCC(C(=O)NC(Cc3ccc4ccccc4c3)C(=O)NCCCCC(NC(=O)NC(CCC(=O)O)C(=O)O)C(=O)O)CC2)CCN(CC(=O)[O-])CC1.[161Tb+3] (centres unmarked) [^161Tb-PSMA-617],PC-3 PIP tumor cell uptake,[1]; 2–4 h incubation,47–54%
same,Uptake in PC-3 PIP tumor cells,[1]; 2 h incubation,47%
same,Uptake in PC-3 PIP tumor cells,[1]; 4 h incubation,54%
same,Internalized fraction,[1]; 2–4 h incubation,8–11%
same,Internalized fraction,[1]; 2 h,8%
same,Internalized fraction,[1]; 4 h,11%
same,Biodistribution: Blood,[2]; 1 h p.i.,0.49 ± 0.16 %IA/g
same,Biodistribution: Bone,[2]; 1 h p.i.,0.21 ± 0.07 %IA/g
same,Biodistribution: Heart,[2]; 1 h p.i.,0.21 ± 0.05 %IA/g
same,Biodistribution: Intestines,[2]; 1 h p.i.,0.26 ± 0.05 %IA/g
same,Biodistribution: Kidneys,[2]; 1 h p.i.,9.6 ± 1.3 %IA/g
same,Biodistribution: Liver,[2]; 1 h p.i.,0.28 ± 0.05 %IA/g
same,Biodistribution: Lung,[2]; 1 h p.i.,0.66 ± 0.28 %IA/g
same,Biodistribution: Muscle,[2]; 1 h p.i.,0.13 ± 0.06 %IA/g
same,Biodistribution: PC-3 PIP tumor,[2]; 1 h p.i.,44 ± 5.3 %IA/g
same,Biodistribution: PC-3 flu tumor,[2]; 1 h p.i.,0.39 ± 0.18 %IA/g
same,Biodistribution: Salivary glands,[2]; 1 h p.i.,0.28 ± 0.13 %IA/g
same,Biodistribution: Spleen,[2]; 1 h p.i.,0.54 ± 0.08 %IA/g
same,Biodistribution: Stomach,[2]; 1 h p.i.,0.22 ± 0.05 %IA/g
same,Tumor-to-blood,[2]; 1 h p.i.,99 ± 27
same,Tumor-to-kidney,[2]; 1 h p.i.,4.7 ± 0.5
same,Tumor-to-liver,[2]; 1 h p.i.,163 ± 23
same,Biodistribution: Blood,[2]; 4 h p.i.,0.08 ± 0.01 %IA/g
same,Biodistribution: Bone,[2]; 4 h p.i.,0.09 ± 0.02 %IA/g
same,Biodistribution: Heart,[2]; 4 h p.i.,0.05 ± 0.01 %IA/g
same,Biodistribution: Intestines,[2]; 4 h p.i.,0.06 ± 0.01 %IA/g
same,Biodistribution: Kidneys,[2]; 4 h p.i.,2.9 ± 0.14 %IA/g
same,Biodistribution: Liver,[2]; 4 h p.i.,0.17 ± 0.02 %IA/g
same,Biodistribution: Lung,[2]; 4 h p.i.,0.11 ± 0.01 %IA/g
same,Biodistribution: Muscle,[2]; 4 h p.i.,0.03 ± 0.00 %IA/g
same,Biodistribution: PC-3 PIP tumor,[2]; 4 h p.i.,49 ± 5.5 %IA/g
same,Biodistribution: PC-3 flu tumor,[2]; 4 h p.i.,0.13 ± 0.02 %IA/g
same,Biodistribution: Salivary glands,[2]; 4 h p.i.,0.07 ± 0.01 %IA/g
same,Biodistribution: Spleen,[2]; 4 h p.i.,0.13 ± 0.01 %IA/g
same,Biodistribution: Stomach,[2]; 4 h p.i.,0.08 ± 0.01 %IA/g
same,Tumor-to-blood,[2]; 4 h p.i.,640 ± 132
same,Tumor-to-kidney,[2]; 4 h p.i.,17 ± 1.6
same,Tumor-to-liver,[2]; 4 h p.i.,302 ± 64
same,Biodistribution: Blood,[2]; 24 h p.i.,0.03 ± 0.00 %IA/g
same,Biodistribution: Bone,[2]; 24 h p.i.,0.09 ± 0.01 %IA/g
same,Biodistribution: Heart,[2]; 24 h p.i.,0.03 ± 0.00 %IA/g
same,Biodistribution: Intestines,[2]; 24 h p.i.,0.03 ± 0.00 %IA/g
same,Biodistribution: Kidneys,[2]; 24 h p.i.,1.1 ± 0.09 %IA/g
same,Biodistribution: Liver,[2]; 24 h p.i.,0.11 ± 0.02 %IA/g
same,Biodistribution: Lung,[2]; 24 h p.i.,0.11 ± 0.09 %IA/g
same,Biodistribution: Muscle,[2]; 24 h p.i.,0.02 ± 0.00 %IA/g
same,Biodistribution: PC-3 PIP tumor,[2]; 24 h p.i.,43 ± 5.5 %IA/g
same,Biodistribution: PC-3 flu tumor,[2]; 24 h p.i.,0.08 ± 0.01 %IA/g
same,Biodistribution: Salivary glands,[2]; 24 h p.i.,0.05 ± 0.01 %IA/g
same,Biodistribution: Spleen,[2]; 24 h p.i.,0.08 ± 0.01 %IA/g
same,Biodistribution: Stomach,[2]; 24 h p.i.,0.04 ± 0.00 %IA/g
same,Tumor-to-blood,[2]; 24 h p.i.,1668 ± 302
same,Tumor-to-kidney,[2]; 24 h p.i.,43 ± 10
same,Tumor-to-liver,[2]; 24 h p.i.,383 ± 65
same,Biodistribution: Blood,[2]; 48 h p.i.,0.02 ± 0.00 %IA/g
same,Biodistribution: Bone,[2]; 48 h p.i.,0.05 ± 0.01 %IA/g
same,Biodistribution: Heart,[2]; 48 h p.i.,0.03 ± 0.00 %IA/g
same,Biodistribution: Intestines,[2]; 48 h p.i.,0.02 ± 0.00 %IA/g
same,Biodistribution: Kidneys,[2]; 48 h p.i.,0.58 ± 0.05 %IA/g
same,Biodistribution: Liver,[2]; 48 h p.i.,0.12 ± 0.01 %IA/g
same,Biodistribution: Lung,[2]; 48 h p.i.,0.04 ± 0.01 %IA/g
same,Biodistribution: Muscle,[2]; 48 h p.i.,0.01 ± 0.00 %IA/g
same,Biodistribution: PC-3 PIP tumor,[2]; 48 h p.i.,28 ± 4.1 %IA/g
same,Biodistribution: PC-3 flu tumor,[2]; 48 h p.i.,0.06 ± 0.01 %IA/g
same,Biodistribution: Salivary glands,[2]; 48 h p.i.,0.03 ± 0.00 %IA/g
same,Biodistribution: Spleen,[2]; 48 h p.i.,0.07 ± 0.00 %IA/g
same,Biodistribution: Stomach,[2]; 48 h p.i.,0.03 ± 0.00 %IA/g
same,Tumor-to-blood,[2]; 48 h p.i.,1346 ± 166
same,Tumor-to-kidney,[2]; 48 h p.i.,49 ± 7.2
same,Tumor-to-liver,[2]; 48 h p.i.,229 ± 30
same,Biodistribution: Blood,[2]; 96 h p.i.,0.01 ± 0.00 %IA/g
same,Biodistribution: Bone,[2]; 96 h p.i.,0.06 ± 0.01 %IA/g
same,Biodistribution: Heart,[2]; 96 h p.i.,0.02 ± 0.00 %IA/g
same,Biodistribution: Intestines,[2]; 96 h p.i.,0.12 ± 0.12 %IA/g
same,Biodistribution: Kidneys,[2]; 96 h p.i.,0.40 ± 0.04 %IA/g
same,Biodistribution: Liver,[2]; 96 h p.i.,0.10 ± 0.00 %IA/g
same,Biodistribution: Lung,[2]; 96 h p.i.,0.03 ± 0.00 %IA/g
same,Biodistribution: Muscle,[2]; 96 h p.i.,0.01 ± 0.00 %IA/g
same,Biodistribution: PC-3 PIP tumor,[2]; 96 h p.i.,22 ± 4.3 %IA/g
same,Biodistribution: PC-3 flu tumor,[2]; 96 h p.i.,0.04 ± 0.01 %IA/g
same,Biodistribution: Salivary glands,[2]; 96 h p.i.,0.03 ± 0.00 %IA/g
same,Biodistribution: Spleen,[2]; 96 h p.i.,0.07 ± 0.01 %IA/g
same,Biodistribution: Stomach,[2]; 96 h p.i.,0.66 ± 1.01 %IA/g
same,Tumor-to-blood,[2]; 96 h p.i.,2053 ± 412
same,Tumor-to-kidney,[2]; 96 h p.i.,56 ± 9.7
same,Tumor-to-liver,[2]; 96 h p.i.,224 ± 33
same,Stability (intact radioligand),"[3]; 50 MBq/nmol, 250 MBq/500 μL, at least 1 h, without L-ascorbic acid",> 98%
same,Stability when incubated for longer time periods,"[3]; 250 MBq/500 μL, longer than 1 h, without L-ascorbic acid",radiolytic degradation
same,Stability (intact radioligand),"[3]; in the presence of L-ascorbic acid, up to 24 h",≥ 98%
